Like-named read-outs stand apart in the source and are kept apart here.
What was measured:
4T1 cells [1] = assay: Cell adhesion to fibronectin; format: cell-based, murine
[2] = system: FAK and p130Cas phosphorylation in 4T1 tumors; assay: Pharmacodynamic (PD) evaluation in subcutaneous 4T1 tumors, single i.p. injection; format: in vivo, Balb/c mice; conditions: for maximal plasma levels: single injection
[3] = as above; format: in vivo, Balb/c mice; conditions: Balb/c, mouse, intraperitoneal, 100 mg/kg i.p., 12 h
4T1 tumors = assay: Orthotopic 4T1 breast carcinoma model (breast fat pad)
Method: Immunohistochemistry: For the detection of apoptosis, sections (7 μm) were analyzed using a terminal deoxynucleotidyl transferase dUTP nick end labeling (TUNEL) kit (Roche). For CD45 staining, sections (7 μm) were fixed in 4% paraformaldehyde, rinsed in PBS, and blocked with a solution of PBS containing 5% BSA, 1% goat serum and 0.1% Triton X. FITC-conjugated anti-CD45 antibodies (Invitrogen) at 1 μg/ml in 5% BSA and PBS were incubated for 2 hours. FITC-conjugated IgG2b isotype antibodies (Invitrogen) at the same concentration were used as a negative control. […] Images were sequentially captured at 40× (UPLFL objective, 1.3 NA; Olympus) using a monochrome charge-coupled camera (ORCA ER; Hamamatsu), an inverted microscope (IX51; Olympus), and Slidebook software (v5.0, Intelligent Imaging). Images were pseudo-colored, overlaid, and merged using Photoshop CS3 (Adobe). Fluorescence quantitation was performed using Image J (v1.43).
Orthotopic breast cancer models: One million 4T1 or MDA-MB-231 cells in 10 μl PBS were injected into the T4 mammary fat pad of 8-10 week old mice using a Hamilton syringe. […] Tumors were measured every 3-4 days with digital vernier calipers and tumor volume (mm^3) was calculated using the formula: V=axb^2/2 (a=length, mm; b=width, m) Body weight was measured weekly to assess toxicity. Lungs, spleen, and primary tumors were surgically removed and weighed.
For 4T1 tumor metastasis analyses, lungs were rinsed in PBS, dorsal and ventral fluorescent images acquired using the OV100 Small Animal Imaging System (Olympus). For all images, a common threshold for mCherry fluorescence was set and lung metastatic burden was calculated by determining the average integrated pixel density for micro-tumors present in each lung using Image J software. Metastatic tumor burden (number of metastatic lesion or mean pixel volume) was determined and groups (Negligible, Moderate, and High) were separated based upon numbers distribution. After imaging, lungs were fixed in Bouin's solution (Sigma), paraffin embedded, sectioned, and stained with hematoxylin and eosin (H&E) for histological evaluation. Images were acquired using a differential interference contrast-equipped Olympus IX81 inverted microscope and an Olympus DP71 digital color camera using Slidebook (v5.0) software. […] Lungs were resected, embedded in OCT, and frozen in liquid nitrogen.

4T1 cells [4] = assay: Millicell chamber motility assay (fibronectin, serum chemotaxis); format: cell-based, murine; conditions: Mus musculus, 4 h, read-out: maximal inhibition of cell movement
Method: Cell migration assays: Serum-stimulated chemotaxis using Millicell (12 mm diameter with 8 μm pores; Millipore) chambers were performed as described previously^49. Both sides of membrane were coated with fibronectin (10 μg/ml) and chemotaxis was stimulated by addition of 10% FBS to the lower chamber. Data points represent cell counts (9 fields) from three migration chambers from at least two independent experiments. For scratch-wound closure motility assays, cells were seeded onto fibronectin-coated (10 μg/ml) glass bottom 12 well plates (MatTek) and serum starved (0.5% FBS) for 16 h. Cells were wounded with a pipette tip, washed with phosphate-buffered salin (PBS), and replenished with 10% FBS media with or without FAK inhibitor (1 μM). Time-lapse series was obtained by acquiring images at 10 min intervals for up to 22 h, at 37° C. with humidity and CO2 regulation using a 10× objective on an automated stage (Olympus IX81). Cell trajectories and distance traveled were measured by tracking nucleus position over time using Image J.

4T1 cells [5] = assay: 3D spheroid size assay; format: cell-based, murine; conditions: 72 h
Method: (§1) Anchorage-dependent, spheroid, and soft agar cell growth assays: Cells (2×10^5) were plated per 35 mm well under adherent (tissue culture-treated) and non-adherent conditions (poly-HEMA-coated) in 6-well plates (Costar) in growth media. Between 24 and 168 h, all cells were collected, a single cell suspension was prepared by limited trypsin-EDTA treatment, and viable cells were enumerated by trypan blue staining and counting (ViCell XR, Beckman). For spheroid area determination, cells were imaged after 72 h in phase contrast using an Olympus IX51 microscope. Area was calculated using Image J software (version 1.43). For soft agar assays, 48-well plates were coated with a 1:4 mix of 2% agar (EM Science) in 0.2 ml growth media (bottom layer). 5×10^4 cells were plated per well (in triplicate) in a mixture of 0.3% agar in 0.2 ml growth media (top layer). […] After 10 days, colonies were imaged in phase contrast, enumerated by counting 9 fields (3 fields per well), and total area determined using Image J. For all analyses, experimental points were performed in triplicate and were experiments were repeated at least two times.

[6] = system: ID8 ovarian carcinoma cells; assay: ID8 suspended spheroid cell growth; format: cell-based, murine
Method: as §1, with “Between 24 and 168 h, all cells were collected, a single cell suspension was prepared by limited trypsin-EDTA treatment, and viable cells were enumerated by trypan blue staining and counting (ViCell XR, Beckman).” left out

Solubility in water = format: physicochemical; conditions: HCl salt
Source text: 10, 2008, and published as WO 2008/115369.

MDA-MB-231 cells = assay: Apoptosis assay of suspended cells (annexin V, flow cytometry); format: cell-based, human; conditions: up to 10 μM, within 6 h
Method: Quadrant gates were positioned based on cell autofluorescence (negative) staurosporine-treated (positive) controls. Apoptosis was calculated to be the percent of annexin V-positive cells.

[7] = 0.5 mg/ml ad libitum in drinking water
[8] = 150 mg/kg p.o. b.i.d. vs vehicle
[9] = 150 mg/kg p.o., b.i.d., 15 days
[10] = oral, 4T1 and MDA-MB-231 orthotopic models

CNC(=O)c1ccccc1Nc1cc(Nc2ccc(N3CCOCC3)cc2OC)ncc1C(F)(F)F [PND-1186]
effect on 4T1 cell adhesion to fibronectin (4T1 cells [1]): did not affect 4T1 cell adhesion to fibronectin | duration of tumor FAK pY397 inhibition ([2]; 30 mg/kg i.p.): 3 to 6 h | maximal PND-1186 in tumors ([2]; 30 mg/kg i.p.): 0.75 µg/g | time to maximal PND-1186 in tumors ([2]; 30 mg/kg i.p.): ≤ 1 h | time to maximal plasma levels ([2]; 30 mg/kg i.p.): ≤ 15 min | plasma levels at 12 h ([2]; 30 mg/kg i.p., 12 h): 0.1 µM | tumor FAK pY397 phosphorylation at 12 h ([2]; 30 mg/kg i.p., 12 h): not significantly inhibited | tumor PND-1186 levels by 12 h ([2]; 30 mg/kg i.p., 12 h): 0.04 µg/g | maximal plasma levels ([2]; 30 mg/kg i.p.): 35 µM | time to maximal PND-1186 in tumors ([2]; 100 mg/kg i.p.): ≤ 1 h | time to maximal plasma levels ([2]; 100 mg/kg i.p.): ≤ 30 min | plasma levels at 12 h ([2]; 100 mg/kg i.p., 12 h): 1.1 µM | p130Cas Tyr-410 phosphorylation (pY410Cas) in tumors ([2]; 100 mg/kg i.p., by 3 h): significantly reduced p130Cas Tyr-410 phosphorylation | sustained inhibition of tumor FAK Tyr-397 phosphorylation ([2]; 100 mg/kg i.p., for 12 h): > 60% | maximal plasma levels ([2]; 100 mg/kg i.p.): 117 µM | maximal PND-1186 in tumors ([2]; 100 mg/kg i.p., maintained up to 12 h): 16.1 µg/g | concentration at 12 h ([3]; plasma, read-out: average concentration in plasma at 12 h): 15.1 µM | concentration at 12 h ([3]; tumor, read-out: average concentration in tumors at 12 h): 10400 ng/g | average concentration in plasma (4T1 tumors; [7]): 1.0 µM | average concentration in tumors (4T1 tumors; [7]): 0.52 µg/g | tumor growth and tumoral FAK-p130Cas phosphorylation (4T1 tumors; [7]): significantly decreased tumor growth and tumoral FAK-p130Cas phosphorylation | decrease in CD45 tumor-associated staining (4T1 tumors; 150 mg/kg): 2.8 fold | tumor vasculature (anti-CD31 staining) (4T1 tumors; 150 mg/kg p.o. b.i.d.): no major vascular differences | increase of TUNEL staining in breast fat pad tumors (4T1 tumors; [8]): 2.8 fold | tumor volume by Day 7 (4T1 tumors; [8]): significantly reduced tumor volume | reduction of final tumor weight (4T1 tumors; 150 mg/kg p.o. b.i.d., 16 days): 3.1 fold | total body weight (4T1 tumors; 150 mg/kg p.o. b.i.d., 16 days): without affects on total body weight | orthotopic and syngeneic breast carcinoma tumor growth and spontaneous metastasis to lungs (4T1 tumors; 150 mg/kg p.o. bid): significantly inhibited | lung metastases by H&E staining of lung sections (4T1 tumors; [9]): detectable 4T1 lung metastases in control but not PND-1186-treated mice | mice with high lung metastatic burden (4T1 tumors; [9]): no mice with a high metastatic burden | mice with negligible lung metastases (4T1 tumors; [9]): 7/12 | tumor histology (4T1 tumors; ad libitum PND-1186): necrotic regions at the tumor core, increased TUNEL staining, and decreased leukocyte infiltrate | FAK pY397 and p130Cas pY410 phosphorylation in primary tumors (4T1 tumors; ad libitum oral): sufficient to inhibit both FAK pY397 and p130Cas pY410 phosphorylation | mice with negligible to moderate lung metastatic burden (4T1 tumors; ad libitum oral): 13/15 | pY118 paxillin phosphorylation in tumors (4T1 tumors; ad libitum oral): inhibited pY118 paxillin phosphorylation | pY416 Src, pY402 Pyk2, pS473 Akt, pT308 Akt phosphorylation in tumors (4T1 tumors; ad libitum oral): not pY416 Src nor pY402 Pyk2, pS473 Akt, or pT308 Akt phosphorylation | spleen size (4T1 tumors; ad libitum oral): normal size | inhibition of final tumor mass (4T1 tumors; ad libitum oral, Day 22): > 1.8 fold | toxicity or weight loss (4T1 tumors; ad libitum oral, Day 22): without toxicity or weight loss | tumor-associated inflammatory cell infiltration and splenomegaly (4T1 tumors; mice with syngeneic 4T1 tumors): significantly decreased tumor-associated inflammatory cell infiltration and splenomegaly | tumor-associated splenomegaly (4T1 tumors; mouse, in vivo): reduced tumor-associated splenomegaly | anti-tumor and anti-metastatic effects (4T1 tumors; [10]): significant anti-tumor and anti-metastatic effects | tolerability of oral dosing (4T1 tumors; [10]): without animal morbidity, death or weight loss | spleen appearance (4T1 tumors; tumor-bearing PND-1186-treated mice): healthy and indistinguishable from non-treated, non-tumor bearing mice | inhibition at 0.4 µM (4T1 cells [4]): 50 to 60% | reduction in average spheroid size (4T1 cells [5]; 0.1 μM): ~3 fold | concentration of maximal effect on spheroid size (4T1 cells [5]): 0.2 µM | ID8 cell number ([6]; 0.1, 0.4, and 1.0 μM, 72 h, suspended spheroids): significantly inhibited ID8 cell number | viable ID8 cells ([6]; after 15 days): dramatic reduction in viable cells | solubility (Solubility in water): 22 mg/mL | MDA-MB-231 apoptosis in suspension (MDA-MB-231 cells): did not promote increased MDA-MB-231 apoptosis
